We go through 1 compound from patent publication US11878016B2, “Methods and products for treating subjects with autism spectrum disorders” (NEURIM PHARMACEUTICALS (1991) LTD., priority 2021, dated 2024).

This assay deals with C57BL/6J mice exposed in utero to VPA (and SAL control offspring). The assay is described as follows: Three chamber test in the valproic acid (VPA) model of autism. In kind it is in vivo. The text has this:
Furthermore, rodents prenatally exposed to this drug display behavioral phenotypes characteristics of the human autism condition. This model might better represent the many cases of idiopathic autism which are of environmental/epigenetic origins than do transgenic models carrying mutations in single autism-associated genes. The VPA model is an environmentally triggered model with strong construct and clinical validity. The VPA-induced rodent model is an art-recognized and well-established and widely utilized animal model to test putative efficacy of pharmacological agents on behavioral and social elements in the autistic spectrum for humans.
C57BL/6J mice were obtained at 7-8 weeks of age and were mated, with pregnancy confirmed by the presence of a vaginal plug on embryonic day 0 (E0). On E12.5, pregnant females received a single intraperitoneal injection of sodium salt of valproic acid (VPA, 500 mg/kg) dissolved in saline (SAL). Control females received an equal volume of SAL only. Day of birth was recorded as PO (postnatal day zero). The offspring were weaned on P21 (postnatal day 21) and the male offspring were housed in groups of 4-5. Experiments were carried out on male offspring. The mice were housed in a temperature- and humidity-controlled environment with ad libitum access to food and water. Animals were maintained on a 12 hr light/dark schedule, with lights on at 8 A.M.
The male offspring of VPA-treated mice were divided into 4 groups (n=8-9 per group): VPA-Vehicle)+50 μg of ZnSO4, VPA-ticagrelor (0.3 mg/kg)+[…] of ZnSO4, VPA-ticagrelor (10 mg/kg)+50 μg of ZnSO4 and VPA-ticagrelor (30 mg/kg)+50 μg of ZnSO4. The male offspring of SAL-treated mice were divided into 2 groups (n=10 per group): SAL-Vehicle and SAL-ticagrelor (30 mg/kg)+50 μg of ZnSO4. From the sixth week to eight week of age, the mice received three once-weekly injections of either saline (50 μl/g ip) or ticagrelor (i.p.). Twenty-four hours after the last injection, the three chamber test was performed.
The three-chamber test assesses cognition in the form of general sociability and interest in social novelty in a rodent model of CNS disorders. This test measures the sociability, the propensity to spend time with another mouse, as compared to time spent alone in an identical but empty chamber.
The apparatus was an acrylic box (length: 62 cm, width: 41 cm, height: 30.5 cm) divided into three chambers. A 5 cm×5 cm opening was made on the partitions so that mice could freely explore the three chambers. Mouse was first placed into the centre chamber of the apparatus and allowed 5 min for habituation. Following the completion of the acclimatization period the test mouse was removed to a holding cage, and the bedding material was redistributed. Then a novel mouse enclosed in a tiny cage was placed in one lateral chamber (social area) and an empty tiny cage was placed in the other lateral chamber as a novel object (non-social area). Mouse was first placed into the centre chamber and allowed to freely explore the chambers for 10 min and the time spent in each of the three areas (social, centre, and non-social areas) was recorded.
Statistical Analyses: Statistical analyses for the data were performed using one-way or two-way RM ANOVA (SigmaStat 3.1). Post-hoc comparisons were performed with the Tukey HSD method. If data were not normally distributed, Kruskal-Wallis one way ANOVA on ranks followed by the Dunn's method was used. All data were represented as mean±SEM. Significant level was set at p<0.05.

Where [1] appears, read: SAL (control) offspring, ticagrelor 30 mg/kg i.p. + 50 μg ZnSO4, vs SAL-Vehicle, p>0.05.

As to `CCCSc1nc(N[C@@H]2C[C@H]2c2ccc(F)c(F)c2)c2nnn([C@@H]3C[C@H](OCCO)[C@@H](O)[C@H]3O)c2n1` [ticagrelor, (1S,2S,3R,5S)-3-[7-[[(1R,2S)-2-(3,4-difluorophenyl)cyclopropyl]amino]-5-(propylthio)-3H-1,2,3-triazolo[4,5-d]pyrimidin-3-yl]-5-(2-hydroxyethoxy)-1,2-cyclopentanediol], the “time spent in non-social area” value by setting is: under setting [1], “no significant difference”; (VPA offspring, ticagrelor 10 mg/kg i.p. + 50 μg ZnSO4, vs VPA-Vehicle, p<0.01) “significant decrease”; (VPA offspring, ticagrelor 30 mg/kg i.p. + 50 μg ZnSO4, vs VPA-Vehicle, p<0.01) “significant decrease”. Further, the “time spent in social area” value runs as follows: under setting [1], “no significant difference”; (VPA offspring, ticagrelor 10 mg/kg i.p. + 50 μg ZnSO4, three once-weekly injections, test 24 h after the last, vs VPA-Vehicle, p<0.01) “significant increase”; (VPA offspring, ticagrelor 30 mg/kg i.p. + 50 μg ZnSO4, three once-weekly injections, test 24 h after the last, vs VPA-Vehicle, p<0.001) “significant increase”. Besides, the “time spent in centre area” value (VPA offspring, ticagrelor 30 mg/kg i.p. + 50 μg ZnSO4, vs VPA-Vehicle, p<0.05) is recorded as “significant decrease”. For the same compound, where the note is “three once-weekly administrations of ticagrelor and zinc salt, C57BL/6J mice exposed in utero to VPA”, the deficit in sociability entry is given as “attenuated the deficit in sociability”.
